# Values quoted from earlier work, collected in US20230398127A1, “USE OF COMBINED ORAL CONTRACEPTIVES CONTAINING NOMEGESTROL ACETATE AND ESTRADIOL” (THERAMEX HQ UK LIMITED, priority 2020, published 2023).
# Target: T1, progesterone receptor (Homo sapiens, UniProt P06401)
# T1 sequence (P06401 1-933): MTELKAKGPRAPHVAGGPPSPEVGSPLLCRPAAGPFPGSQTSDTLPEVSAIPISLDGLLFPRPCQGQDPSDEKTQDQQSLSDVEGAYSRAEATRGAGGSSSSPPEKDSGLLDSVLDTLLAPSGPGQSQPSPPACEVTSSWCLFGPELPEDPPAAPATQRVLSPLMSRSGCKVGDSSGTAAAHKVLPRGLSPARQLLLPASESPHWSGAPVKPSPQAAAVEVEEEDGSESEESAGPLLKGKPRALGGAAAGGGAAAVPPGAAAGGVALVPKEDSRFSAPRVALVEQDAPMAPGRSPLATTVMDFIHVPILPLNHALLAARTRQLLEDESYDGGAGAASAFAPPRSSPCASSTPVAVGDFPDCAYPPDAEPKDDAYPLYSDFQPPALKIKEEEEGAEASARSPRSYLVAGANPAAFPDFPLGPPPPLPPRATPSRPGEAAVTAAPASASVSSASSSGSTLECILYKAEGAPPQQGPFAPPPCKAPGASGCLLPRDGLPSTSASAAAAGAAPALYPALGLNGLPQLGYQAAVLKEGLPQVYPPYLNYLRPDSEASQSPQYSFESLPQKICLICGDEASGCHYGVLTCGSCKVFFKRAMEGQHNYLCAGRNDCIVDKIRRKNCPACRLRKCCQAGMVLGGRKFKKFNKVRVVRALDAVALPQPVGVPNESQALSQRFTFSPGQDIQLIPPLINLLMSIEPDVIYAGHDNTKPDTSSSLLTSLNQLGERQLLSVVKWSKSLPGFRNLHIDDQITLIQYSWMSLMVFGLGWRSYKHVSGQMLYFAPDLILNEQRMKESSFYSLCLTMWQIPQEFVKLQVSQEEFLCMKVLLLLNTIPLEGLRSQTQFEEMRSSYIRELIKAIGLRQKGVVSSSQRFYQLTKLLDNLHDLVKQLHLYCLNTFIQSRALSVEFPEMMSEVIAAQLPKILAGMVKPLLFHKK
structure (smiles),measurement,value
"CC(=O)O[C@]1(C(C)=O)CC[C@H]2[C@@H]3C=C(C)C4=CC(=O)CC[C@@H]4[C@H]3CC[C@@]21C [nomegestrol acetate, 17α-acetoxy-6-methyl-19-norpregna-4,6-diene-3,20-dione]",Affinity for the progesterone receptor,strong
